Columns and labels:
[1] = Soil removal, phosphorous built industrial liquid laundry detergent, carbon black/oil; conditions: 130° F.
Excerpt: (§1) In contrast, the three industrial detergents contained a high performance builder package, and dodecylbenzenesulfonic acid sodium salt. Two of the three also contain an AE, either tridecanol-9-mole-ethoxylate or C12-15 -alcohol-9 mole-ethoxylate. Many commercial detergents use combinations of LABS and AE's to balance performance and cost. LABS remove particulates well and lower overall surfactant cost while AE's effectively remove oily soils. The surfactant concentrations in all three are equal (i.e., the detergent without AE had more LABS) excepting the detergent using Mobil's AE. Its concentration is not increased to offset a contaminant, 7 wt % polyethylene glycol. The builder in all three detergents contained tetrapotassium pyrophosphate, sodium metasilicate, potassium hydroxide, and carboxymethylcellulose.
(§2) Testing Methods. This study uses two artificial soils on three test fabrics. Carbon black in an oil matrix simulates particulate soil, and sebum/dust simulates oily soil. Test Fabrics Inc. (Middlesex, N.J.) prints these soils on 100% cotton, 65/35 polyester/cotton with permanent press finish, and 100% polyester fabrics.
(§3) U.S. Testing Company did the fabric washing and drying under carefully controlled conditions. A Terg-O-Tometer washes using a 15 minute wash time. Conditions are 100 rpm agitation speed, 130° F. for the industrial detergents and 100° F. for the household detergents. They made wash and rinse water to 150 ppm hardness (U.S. national average), and washes six 3×4 inch test swatches per liter of solution. They rinse each load twice for five minutes. After washing and rinsing, the swatches are dried in an electric dryer, and ironed with a warm iron to remove wrinkles. All samples are run in triplicate.
(§4) White light reflectance, taken before and after washing, measures soil removal. A green filter cut out the effect of artificial brighteners. They measure soil redoposition by taking reflectance readings of fabric margins (areas not printed with soil) before and after washing. […]

[2] = Soil removal, phosphorous built industrial liquid laundry detergent, sebum/dust; conditions: 130° F.
Excerpt: as §1, §2, §3, §4

[3] = Soil removal, unbuilt household liquid laundry detergent, carbon black/oil; conditions: 100° F.
Excerpt: (§5) Applicants blend three unbuilt household detergents differing only in the surfactant. Either Mobil's tridecanol-9 mole-ethoxylate, Shell's C12-15 -alcohol-9 mole-ethoxylate, or Vista's dodecylbenzenesulfonic acid sodium salt are used. All contain triethanolamine to make the wash liquor basic. This type formulation magnifies surfactant differences because it lacks a builder to extend the surfactant and soften hard water.
as §2, §3
(§6) White light reflectance, taken before and after washing, measures soil removal. A green filter cut out the effect of artificial brighteners. They measure soil redoposition by taking reflectance readings of fabric margins (areas not printed with soil) before and after washing. […] However, the reflectance technique more closely measures soil removal from the fabric surface, what the consumer sees.

[4] = Soil removal, unbuilt household liquid laundry detergent, sebum/dust; conditions: 100° F.
Excerpt: as §5, §2, §3, §6

dodecylbenzenesulfonic acid sodium salt [Vista LABS]
Percent Soil Removal ([1]; Cotton): 52% | Percent Soil Removal ([1]; Polyester): 29% | Percent Soil Removal ([1]; Polyester/Cotton): 34% | Percent Soil Removal ([2]; Cotton): 60% | Percent Soil Removal ([2]; Polyester): 39% | Percent Soil Removal ([2]; Polyester/Cotton): 82% | Percent Soil Removal ([3]; Cotton): 36% | Percent Soil Removal ([3]; Polyester): 40% | Percent Soil Removal ([3]; Polyester/Cotton): 31% | Percent Soil Removal ([4]; Cotton): 36% | Percent Soil Removal ([4]; Polyester): 19% | Percent Soil Removal ([4]; Polyester/Cotton): 45%

Source: US5112519A, “Process for production of biodegradable surfactants and compositions thereof” (Mobil Oil Corporation, priority 1989, dated 1992)
